Reference: patent publication US20260250257A1, “ANTIBACTERIAL AND SYNERGISTIC ACTIVE COMPOUND AND USE THEREOF” (EAST CHINA UNIVERSITY OF SCIENCE AND TECHNOLOGY, priority 2023, published 2026)
Converted amounts (≈) assume the structure as drawn.

Assays:
Assay type in all cases: cell-based
[1] = test system: ATCC13883 strain (Klebsiella pneumoniae); test: Broth microdilution, antibacterial activity of the compound used alone; details: for MIC: read-out: Antibacterial activity of the compound of Formula I, ATCC13883
Excerpt: (§1) The broth microdilution method was used to test the antibacterial effects of the compounds of the present invention against various Gram-negative bacterial strains when used alone.

[2] = test system: ATCC9027 strain (Pseudomonas aeruginosa); test: as above; details: for MIC: read-out: Antibacterial activity of the compound of Formula I, ATCC9027
Excerpt: as §1

[3] = test system: ATCC25922 strain (Escherichia coli); test: as above; details: for MIC: read-out: Antibacterial activity of the compound of Formula I, ATCC25922
Excerpt: as §1

[4] = test system: ATCC19606 strain (Acinetobacter baumannii); test: as above; details: for MIC: read-out: Antibacterial activity of the compound of Formula I, ATCC19606
Excerpt: as §1

[5] = test system: ATCC13883 strain (Klebsiella pneumoniae); test: Checkerboard antibacterial synergistic activity test with polymyxin E (FIC); set-up: key: FIC≤0.5 synergy; 0.5–1 additive; 1–2 indifferent; ≥2 antagonism; details: combined with polymyxin E
Procedure, shortened: (§2)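 FIC values come from a microdilution checkerboard crossing polymyxin E against the test compound in MH medium, with uninoculated blanks included. Incubation lasts 16 h at 37° C. Scoring: synergy at FIC ≤0.5, additivity between 0.5 and 1, indifference between 1 and 2, antagonism at 2 or above.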

[6] = test system: ATCC9027 strain (Pseudomonas aeruginosa); test: as above; set-up: key: FIC≤0.5 synergy; 0.5–1 additive; 1–2 indifferent; ≥2 antagonism; details: combined with polymyxin E
Procedure, shortened: as §2

[7] = test system: ATCC25922 strain (Escherichia coli); test: as above; set-up: key: FIC≤0.5 synergy; 0.5–1 additive; 1–2 indifferent; ≥2 antagonism; details: combined with polymyxin E
Procedure, shortened: as §2

[8] = test system: ATCC19606 strain (Acinetobacter baumannii); test: as above; set-up: key: FIC≤0.5 synergy; 0.5–1 additive; 1–2 indifferent; ≥2 antagonism; details: combined with polymyxin E
Procedure, shortened: as §2

Row | Structure (SMILES) | Antibacterial activity of the compound of Formula I, ATCC13883 [1] | Antibacterial activity of the compound of Formula I, ATCC9027 [2] | Antibacterial activity of the compound of Formula I, ATCC25922 [3] | Antibacterial activity of the compound of Formula I, ATCC19606 [4] | Synergistic activity (FIC value) ATCC13883 [5] | Synergistic activity (FIC value) ATCC9027 [6] | Synergistic activity (FIC value) ATCC25922 [7] | Synergistic activity (FIC value) ATCC19606 [8] | MIC [1] | MIC [2] | MIC [3] | MIC [4]
1 | O=C(Nc1ccccc1)Nc1cccc(-c2nc(N=C3NCCCN3)sc2Br)c1 [Compound I-198] | 128 µg/mL | 64 µg/mL | 128 µg/mL | 256 µg/mL | 1.25 | 1.25 | 0.5 | 0.75 | – | – | – | –
2 | CCc1sc(N=C(N)N)nc1-c1ccccc1Oc1ccc(N2CCOCC2)cc1 [Compound I-102] | 256 µg/mL | 256 µg/mL | 256 µg/mL | 256 µg/mL | 1.25 | 0.51 | 1.25 | 1.25 | – | – | – | –
3 | Cc1ccc2cccc(-c3nc(N=C(N)N)oc3C)c2c1 [Compound I-58] | 256 µg/mL | 256 µg/mL | 256 µg/mL | 256 µg/mL | 0.25 | 0.63 | 0.5 | 0.28 | – | – | – | –
4 | Cn1ccc2cccc(-c3c[se]c(N=C(N)N)n3)c21 [Compound I-72] | 256 µg/mL | 256 µg/mL | 256 µg/mL | 256 µg/mL | 0.31 | 0.5 | 0.56 | 0.25 | – | – | – | –
5 | NC(N)=Nc1nc(-c2cc(F)cc(Oc3ccc(Cl)cc3Cl)c2)cs1 [Compound I-100] | 256 µg/mL | 256 µg/mL | 128 µg/mL | 256 µg/mL | 0.13 | 0.18 | 0.15 | 0.02 | – | – | – | –
6 | NC(N)=Nc1nc(-c2cccc(Oc3ccccc3Cl)c2)cs1 [Compound I-94] | 256 µg/mL | 256 µg/mL | 256 µg/mL | 256 µg/mL | 0.19 | 0.52 | 0.26 | 0.04 | – | – | – | –
7 | Clc1ccc(Oc2cc(Cl)ccc2-c2c[nH]c(N=C3NCCCN3)n2)c(Cl)c1 [Compound I-150] | 256 µg/mL | 256 µg/mL | 256 µg/mL | 256 µg/mL | 0.09 | 0.06 | 0.14 | 0.31 | – | – | – | –
8 | O=[N+]([O-])c1ccc(Oc2ccc(I)cc2I)cc1-c1c[se]c(N=C2NCCCN2)n1 [Compound I-158] | 256 µg/mL | 256 µg/mL | 256 µg/mL | 256 µg/mL | 0.16 | 0.28 | 0.18 | 0.03 | – | – | – | –
9 | CC(C)c1cc(-c2c[se]c(N=C(N)N)n2)cc(C(C)C)c1 [Compound I-18] | 256 µg/mL | 256 µg/mL | 256 µg/mL | 256 µg/mL | 0.33 | 0.62 | 0.39 | 0.15 | – | – | – | –
10 | Ic1ccccc1-c1c[nH]c(N=C2NCCCN2)n1 [Compound I-179] | 128 µg/mL | 64 µg/mL | 128 µg/mL | 256 µg/mL | 1.25 | 0.51 | 1.25 | 1.25 | – | – | – | –
11 | Cc1ccc(Oc2ccccc2-c2csc(NC3=NCCCN3)n2)c(C)c1 [Compound I-143] | – | – | – | – | 0.19 | 0.04 | 0.04 | 0.38 | 256 µg/mL (≈ 676 µM) | 256 µg/mL (≈ 676 µM) | 256 µg/mL (≈ 676 µM) | 256 µg/mL (≈ 676 µM)
12 | NC(N)=Nc1nc(-c2cc(C(F)(F)F)cc(C(F)(F)F)c2)cs1 [Compound I-44] | – | – | – | – | 0.25 | 0.52 | 0.31 | 0.14 | 256 µg/mL (≈ 723 µM) | 256 µg/mL (≈ 723 µM) | 256 µg/mL (≈ 723 µM) | 256 µg/mL (≈ 723 µM)
13 | Clc1cc(Oc2ccc(Cl)cc2Cl)cc(-c2csc(N=C3NCCCN3)n2)c1 [Compound I-160] | 256 µg/mL | 256 µg/mL | 256 µg/mL | 256 µg/mL | 0.16 | 0.28 | 0.18 | 0.03 | – | – | – | –
14 | COc1ccc(Oc2cccc(-c3csc(N=C(N)N)n3)c2)c(OC)c1 [Compound I-98] | 256 µg/mL | 256 µg/mL | 256 µg/mL | 256 µg/mL | 0.09 | 0.06 | 0.14 | 0.31 | – | – | – | –
15 | NC(N)=Nc1nc(-c2ccccc2Oc2ccc(Cl)cc2Cl)cs1 [Compound I-85] | – | – | – | – | 0.19 | 0.52 | 0.26 | 0.04 | 256 µg/mL (≈ 675 µM) | 256 µg/mL (≈ 675 µM) | 256 µg/mL (≈ 675 µM) | 256 µg/mL (≈ 675 µM)
16 | C[S+]([O-])c1cccc(-c2csc(N=C(N)N)n2)c1 (centres unmarked) [Compound I-27] | 256 µg/mL | 256 µg/mL | 256 µg/mL | 256 µg/mL | 1.25 | 1.25 | 1.25 | 0.51 | – | – | – | –
17 | NC(N)=Nc1nc(-c2ccccc2[N+](=O)[O-])c[nH]1 [Compound I-20] | 256 µg/mL | 256 µg/mL | 256 µg/mL | 256 µg/mL | 0.63 | 0.56 | 0.5 | 0.75 | – | – | – | –
18 | Ic1ccc(-c2csc(N=C3NCCCN3)n2)cc1 [Compound I-181] | 256 µg/mL | 256 µg/mL | 256 µg/mL | 256 µg/mL | 0.19 | 1.25 | 0.52 | 0.13 | – | – | – | –
19 | COc1ccc(Oc2cccc(-c3csc(N=C4NCCCN4)n3)c2)c(C)c1 [Compound I-154] | 256 µg/mL | 256 µg/mL | 256 µg/mL | 256 µg/mL | 0.19 | 0.04 | 0.04 | 0.38 | – | – | – | –
